The nature of data set [1]: Basal cytotoxicity, neutral red uptake (NRU) assay, with LD50 estimated from IC50. It is filed as cell-based. Particulars: mouse. On the procedure:
The evaluation of the in vitro cytotoxicity (IC50, half maximal inhibitory concentration) of the abovementioned compounds and their structural derivatives was assessed using the standard colorimetric 3-(4,5-dimethylthiazol-2-yl)-2,5-diphenyltetrazolium bromide (MTT) assay on two monolayer tumour cell lines, namely HT-1080 (human connective tissue fibrosarcoma) and MH-22A (mouse hepatocarcinoma). Additionally, the impact of the compound on non-cancerous “normal” cells—mouse fibroblasts (NIH3T3)—was estimated in order to measure the basal toxicity (LD50, median lethal dose). The obtained results were used for investigation of the structure–activity relationships and exploration of the effect of substituents on cellular response and toxicity. The estimated LD50 gives information regarding the compound properties and could potentially be used to select promising compounds by providing a starting dose for in vivo experiments.
To assess basal cytotoxicity, the neutral red uptake (NRU) assay was conducted following a modified version of the standard protocol of Stokes’ [71], as validated by the NICEATM-ECVAM study. The NRU cytotoxicity assay determines the ability of viable cells to incorporate and bind a supravital dye, neutral red (NR).
NIH3T3 cells (9000 cells/well) were cultured in 96-well plates in DMEM medium supplemented with 5% FBS for 24 h. Subsequently, the cells were exposed to the test compounds over a range of seven concentrations (1000 µg/mL, 316 µg/mL, 100 µg/mL, 31 µg/mL, 10 µg/mL, 3.0 µg/mL, and 1.0 µg/mL) for 24 h. Untreated cells were used as a control. After the incubation period, the medium was removed from all plates and a solution of NR was added (250 µL, 0.05 mg/mL NR in DMEM 24 h pre-incubated at 37 °C and then filtered before use through a 0.22 µm syringe filter). The plates were incubated for 3 h, followed by three washes with phosphate-buffered saline (PBS). The cells were then treated with a mixture of ethanol (50%) and water (49%) supplemented with 1% acetic acid. The absorbance of NR was measured using a spectrophotometer multiplate reader (Infinite M1000; Tecan Austria GmbH, Salzburg, Austria) at 540 nm. The optical density (OD) was then calculated using the following formula: ODtreated cells×100/ODcontrol cells.
The IC50 values were calculated using the program Graph Pad Prism® 3.0.
In vitro test results were employed to estimate the starting dose for acute oral systemic toxicity tests in rodents (LD50). The LD50 value was calculated using the in vitro IC50 value and a following formula: logLD50(mM/kg)=0.439×logIC50(mM)+0.621
The value was then converted to mg/kg and the compounds classified into four toxicity categories. Category 1 (highly toxic): LD50 ≤ 5 mg/kg; Category 2 (moderately toxic): 5 < LD50 ≤ 50 mg/kg; Category 3 (slightly toxic): 50 < LD50 ≤ 300 mg/kg; Category 4 (practically non-toxic): 300 < LD50 ≤ 2000 mg/kg.

Data set [2] can be described thus: Self-assembling properties by dynamic light scattering (DLS). It is filed as physicochemical. The following applies: 0.1 mM in aqueous medium, ethanol injection, freshly prepared. Here is the method: The estimation of self-assembling properties for the selected compounds was performed using dynamic light scattering (DLS) measurements. The values for the polydispersity index (PDI) and the hydrodynamic average diameter (Dav) of nanoparticles formed by compounds 6a,c–e,g were determined (with a final compound concentration of 0.1 mM in the aqueous medium). The nanoparticles were prepared by the ethanol injection method via the dissolution of the compound in ethanol and after that by the dispersion of the solution into water. The approach is rapid, simple, and can be easily scaled up. This method was previously used successfully for the preparation and characterisation of lipid-like pyridinium amphiphiles. The DLS measurements were performed for freshly prepared samples at room temperature.
The self-assembling properties of the tested compounds were estimated according to a published procedure with minor modifications. Stock solutions of the compounds were prepared in EtOH at a concentration of 1 mM. Stock solutions of the compounds (0.3 mL) were injected into 2.7 mL of deionised water with maximum stirring (IKA Vortex 2 (IKA, Staufen, Germany)) to obtain a final concentration of 0.1 mM. The DLS measurements of the nanoparticles in the aqueous solution were conducted using a Zetasizer Nano ZSP (Malvern Panalytical Ltd., Malvern, UK) instrument with Malvern Instruments Ltd. Software 8.01.4906. The measurements were performed with the following settings—medium: water; refractive index: 1.33; viscosity: 0.8872 cP; temperature: 25 °C; dielectric constant: 78.5; nanoparticles: liposomes; refractive index of materials: 1.60; detection angle: 173° wavelength: 633 nm. The obtained data were analysed using the multimodal number distribution software provided with the instrument. To ensure reproducibility, the measurements were performed in triplicate.

Data set [3] in a line: Photoluminescence quantum yield (PLQY). It counts as physicochemical. Particulars: DMSO solution. On the procedure: Photoluminescence quantum yield (PLQY) values for the DMSO solution of compounds 6a–g were measured (Table 3, entry 4). […] The PLQY values for the SP derivatives 6f,g (each with an N-dimethylaminophenyl moiety) were 1.6% and 1.4%, respectively. The PLQY value for the SP derivative 6c (with a 4-dimethylaminophenyl moiety) was only 0.1%. The PLQY values for the SP derivatives 6d,e (each with a julolidinyl moiety) were 0.5% and 0.7%, respectively. Previously, we designed naphthalene-2-yl)vinyl)pyridinium groups containing 1,4-dihydropyridine amphiphile, for which the PLQY value for the EtOH solution was 1% [20].

Where [4] appears, read: estimated from in vitro NRU IC50 (24 h) by log LD50 = 0.439 x log IC50 + 0.621, read-out: Basal Cytotoxicity (NIH3T3) LD50.
[5] abbreviates: estimated from in vitro NRU IC50 (24 h), read-out: Basal cytotoxicity (NIH3T3) LD50 mM/kg.

Several values for one entry are separate records, joined by “and”; a condition that tells them apart may be missing. Equal entries are not always repeated. Where two headings read alike, the source gives them in different places.

Regarding `CCCCCCCCCCCC[n+]1ccc(C=Cc2cc3c4c(c2)CCCN4CCC3)cc1.[Br-]` [Compound 6d, 1-dodecyl-4-(2-(2,3,6,7-tetrahydro-1H,5H-pyrido[3,2,1-ij]quinolin-9-yl)vinyl)pyridin-1-ium bromide], the figures for the LD50 at 24 h in data set [1] (setting [4]) and in data set [1] (setting [5]) were 169 ± 18 mg/kg and 300 µmol/kg, respectively. Besides, in data set [2], the “PDI (polydispersity index)” value is 0.286 ± 0.030. The “PLQY, %” value in data set [3] is 0.5%.

Consider `CCCCCCCCCCCCCCCC[n+]1ccc(C=Cc2cc(OC)c(OC)c(OC)c2)cc1.[Br-]` [Compound 6b], for which the “PLQY, %” value in data set [3] is listed as 12.2%.

For the compound `CCCCCCCCCCCC[n+]1ccc(C=Cc2cc(OC)c(OC)c(OC)c2)cc1.[Br-]` [Compound 6a, 4-(3,4,5-trimethoxystyryl)-N-dodecylpyridinium bromide], the LD50 at 24 h was 249 ± 3 mg/kg in data set [1] (NIH3T3 cells, estimated from in vitro NRU IC50 (24 h) by log LD50 = 0.439 x log IC50 + 0.621, read-out: Basal Cytotoxicity (NIH3T3) LD50) and 500 µmol/kg in data set [1] (setting [5]). Moreover, the “PDI (polydispersity index)” value in data set [2] is reported as 0.331 ± 0.261. In addition, in data set [3], the “PLQY, %” value was determined as 15.1%.

Consider `C(=C\c1cc2c3c(c1)CCCN3CCC2)/c1cc[n+](CCC[n+]2ccc(/C=C/c3cc4c5c(c3)CCCN5CCC4)cc2)cc1` [Compound 7a], for which the LD50 at 24 h in data set [1] (setting [4]) was 1100 ± 20 mg/kg.

As to `CCCCCCCCCCCCCCCC[n+]1ccc(C=CC=Cc2cc3c4c(c2)CCCN4CCC3)cc1.[Br-]` [Compound 6e, 1-hexadecyl-4-(4-(2,3,6,7-tetrahydro-1H,5H-pyrido[3,2,1-ij]quinolin-9-yl)buta-1,3-dien-1-yl)pyridin-1-ium bromide], in data set [1] (setting [4]), the LD50 at 24 h was 477 ± 11 mg/kg. In data set [1] (setting [5]), the LD50 at 24 h is 800 µmol/kg. Also, in data set [2], the “Dav, nm (average diameter of formed nanoparticles)” value is 118 nm and 118 ± 4 nm; the “PDI (polydispersity index)” value is on record as 0.260 ± 0.011. Besides, the “PLQY, %” value in data set [3] is listed as 0.7%.

In the case of `CCCCCCCCCCCCCCCC[n+]1ccc(C=CC=Cc2ccc(OC)cc2)cc1.[Br-]` [Compound 6c, 1-hexadecyl-4-(4-(4-methoxyphenyl)buta-1,3-dien-1-yl)pyridin-1-ium bromide], the LD50 at 24 h in data set [1] (setting [4]) is 85 ± 7 mg/kg. Moreover, the LD50 at 24 h in data set [1] (setting [5]) was 160 µmol/kg. For the same compound, in data set [2], the “Dav, nm (average diameter of formed nanoparticles)” value was 212 nm and 212 ± 4 nm; the “PDI (polydispersity index)” value came to 0.218 ± 0.026. For the same compound, the “PLQY, %” value in data set [3] was 0.1%.

As for `C(C=Cc1cc2c3c(c1)CCCN3CCC2)=Cc1cc[n+](CCC[n+]2ccc(C=CC=Cc3cc4c5c(c3)CCCN5CCC4)cc2)cc1.[Br-].[Br-]` [Compound 7b, 1,1′-(propane-1,3-diyl)bis(4-(4-(2,3,6,7-tetrahydro-1H,5H-pyrido[3,2,1-ij]quinolin-9-yl)buta-1,3-dien-1-yl)pyridin-1-ium) dibromide], the LD50 at 24 h in data set [1] (setting [4]) was 857 ± 13 mg/kg.

The values are drawn from publication PMC10535741, “Styrylpyridinium Derivatives for Fluorescent Cell Imaging” (Pharmaceuticals, 2023).
